In patent US12497365B2, “4-pyridinyl formamide compound or derivative thereof, preparation method therefor, herbicidal composition and use thereof” (Qingdao Kingagroot Chemical Compound Co., Ltd., priority 2019, dated 2025):

Assays:
Assay in all cases: Weeding effect in post-emergence stage
Type in all cases: in vivo
Details in all cases: active ingredient 2000 g/ha, 3 weeks after application, fresh weight control rate
[1] = tested on: Amaranthus retroflexus L.
Summary of the method: (§1)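 Read-out is growth control rate based on fresh weight, assessed 3 weeks after treatment in the greenhouse. Plants were sprayed at the 2-3 leaf stage with compound dissolved in acetone, plus Tween 80 and methyl oleate emulsifiable concentrate, at doses from 125 to 2000 g/ha.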

Abutilon theophrasti = tested on: Abutilon theophrasti
Summary of the method: as §1

Descurainia sophia = tested on: Descurainia sophia
Summary of the method: as §1

Chenopodium album = tested on: Chenopodium album
Summary of the method: as §1

SMILES	Weeding effect, activity level (growth control rate), Amaranthus retroflexus L. [1]	Weeding effect, activity level (growth control rate), Abutilon theophrasti (Abutilon theophrasti)	Weeding effect, activity level (growth control rate), Descurainia sophia (Descurainia sophia)	Weeding effect, activity level (growth control rate), Chenopodium album (Chenopodium album)
Cn1nnnc1NC(=O)c1ccnc(-c2ccc3ccccc3c2)c1Cl [Compound 1-112]	5 (Level 5: growth control rate is above 85%)	5 (Level 5: growth control rate is above 85%)	5 (Level 5: growth control rate is above 85%)	5 (Level 5: growth control rate is above 85%)
Cn1nnnc1NC(=O)c1ccnc(-c2ccc(F)c3ccccc23)c1Cl [Compound 1-113]	5 (Level 5: growth control rate is above 85%)	5 (Level 5: growth control rate is above 85%)	5 (Level 5: growth control rate is above 85%)	5 (Level 5: growth control rate is above 85%)
Cn1nnnc1NC(=O)c1ccnc(-c2cccc3cnccc23)c1Cl [Compound 1-114]	5 (Level 5: growth control rate is above 85%)	5 (Level 5: growth control rate is above 85%)	5 (Level 5: growth control rate is above 85%)	5 (Level 5: growth control rate is above 85%)
Cn1nnnc1NC(=O)c1ccnc(-c2cc3ccccc3c3ccccc23)c1Cl [Compound 1-115]	5 (Level 5: growth control rate is above 85%)	5 (Level 5: growth control rate is above 85%)	5 (Level 5: growth control rate is above 85%)	5 (Level 5: growth control rate is above 85%)
Cn1nnnc1NC(=O)c1ccnc(-c2cccc3c2oc2ccccc23)c1Cl [Compound 1-116]	5 (Level 5: growth control rate is above 85%)	5 (Level 5: growth control rate is above 85%)	5 (Level 5: growth control rate is above 85%)	5 (Level 5: growth control rate is above 85%)
Cn1nnnc1NC(=O)c1ccnc(-c2ccc3c(c2)oc2ccccc23)c1Cl [Compound 1-117]	5 (Level 5: growth control rate is above 85%)	5 (Level 5: growth control rate is above 85%)	5 (Level 5: growth control rate is above 85%)	5 (Level 5: growth control rate is above 85%)
Cn1nnnc1NC(=O)c1ccnc(-c2ccc3c(c2)sc2ccccc23)c1Cl [Compound 1-118]	5 (Level 5: growth control rate is above 85%)	5 (Level 5: growth control rate is above 85%)	5 (Level 5: growth control rate is above 85%)	5 (Level 5: growth control rate is above 85%)
Cn1nnnc1NC(=O)c1ccnc(-c2ccccn2)c1Cl [Compound 1-119]	5 (Level 5: growth control rate is above 85%)	5 (Level 5: growth control rate is above 85%)	5 (Level 5: growth control rate is above 85%)	5 (Level 5: growth control rate is above 85%)
Cn1nnnc1NC(=O)c1ccnc(-c2cccc(C#N)n2)c1Cl [Compound 1-120]	5 (Level 5: growth control rate is above 85%)	5 (Level 5: growth control rate is above 85%)	5 (Level 5: growth control rate is above 85%)	5 (Level 5: growth control rate is above 85%)
Cn1nnnc1NC(=O)c1ccnc(-c2ccc(C#N)cn2)c1Cl [Compound 1-121]	5 (Level 5: growth control rate is above 85%)	5 (Level 5: growth control rate is above 85%)	5 (Level 5: growth control rate is above 85%)	5 (Level 5: growth control rate is above 85%)
Cn1nnnc1NC(=O)c1ccnc(-c2cc(C#N)ccn2)c1Cl [Compound 1-122]	5 (Level 5: growth control rate is above 85%)	5 (Level 5: growth control rate is above 85%)	5 (Level 5: growth control rate is above 85%)	5 (Level 5: growth control rate is above 85%)
Cn1nnnc1NC(=O)c1ccnc(-c2ccc(F)cn2)c1Cl [Compound 1-123]	5 (Level 5: growth control rate is above 85%)	5 (Level 5: growth control rate is above 85%)	5 (Level 5: growth control rate is above 85%)	5 (Level 5: growth control rate is above 85%)
Cn1nnnc1NC(=O)c1ccnc(-c2cccnc2)c1Cl [Compound 1-124]	5 (Level 5: growth control rate is above 85%)	5 (Level 5: growth control rate is above 85%)	5 (Level 5: growth control rate is above 85%)	5 (Level 5: growth control rate is above 85%)
Cc1ccncc1-c1nccc(C(=O)Nc2nnnn2C)c1Cl [Compound 1-125]	5 (Level 5: growth control rate is above 85%)	5 (Level 5: growth control rate is above 85%)	5 (Level 5: growth control rate is above 85%)	5 (Level 5: growth control rate is above 85%)
Cc1cncc(-c2nccc(C(=O)Nc3nnnn3C)c2Cl)c1 [Compound 1-126]	5 (Level 5: growth control rate is above 85%)	5 (Level 5: growth control rate is above 85%)	5 (Level 5: growth control rate is above 85%)	5 (Level 5: growth control rate is above 85%)
Cn1nnnc1NC(=O)c1ccnc(-c2cccnc2F)c1Cl [Compound 1-127]	5 (Level 5: growth control rate is above 85%)	5 (Level 5: growth control rate is above 85%)	5 (Level 5: growth control rate is above 85%)	5 (Level 5: growth control rate is above 85%)
Cn1nnnc1NC(=O)c1ccnc(-c2cncc(F)c2)c1Cl [Compound 1-128]	5 (Level 5: growth control rate is above 85%)	5 (Level 5: growth control rate is above 85%)	5 (Level 5: growth control rate is above 85%)	5 (Level 5: growth control rate is above 85%)
Cn1nnnc1NC(=O)c1ccnc(-c2ccc(Cl)nc2)c1Cl [Compound 1-129]	5 (Level 5: growth control rate is above 85%)	5 (Level 5: growth control rate is above 85%)	5 (Level 5: growth control rate is above 85%)	5 (Level 5: growth control rate is above 85%)
Cn1nnnc1NC(=O)c1ccnc(-c2cccnc2Cl)c1Cl [Compound 1-130]	5 (Level 5: growth control rate is above 85%)	5 (Level 5: growth control rate is above 85%)	5 (Level 5: growth control rate is above 85%)	5 (Level 5: growth control rate is above 85%)
Cn1nnnc1NC(=O)c1ccnc(-c2ccc(Br)nc2)c1Cl [Compound 1-131]	5 (Level 5: growth control rate is above 85%)	5 (Level 5: growth control rate is above 85%)	5 (Level 5: growth control rate is above 85%)	5 (Level 5: growth control rate is above 85%)
Cn1nnnc1NC(=O)c1ccnc(-c2ccc(F)nc2)c1Cl [Compound 1-132]	5 (Level 5: growth control rate is above 85%)	5 (Level 5: growth control rate is above 85%)	5 (Level 5: growth control rate is above 85%)	5 (Level 5: growth control rate is above 85%)
Cn1nnnc1NC(=O)c1ccnc(-c2cncc(C#N)c2)c1Cl [Compound 1-133]	5 (Level 5: growth control rate is above 85%)	5 (Level 5: growth control rate is above 85%)	5 (Level 5: growth control rate is above 85%)	5 (Level 5: growth control rate is above 85%)
